Results published in paper PMC5218480 (PLoS ONE, 2017).

Test system: MV-4-11 cells
Experiment: Gene expression microarray analysis (Affymetrix PrimeView) and GSEA
Type: cell-based, human
Parameters: RFU PODN (11730768_x_at) / Fold change /veh PODN (11730768_x_at) / RFU LINC00158 (11744669_a_at) / Fold change /veh LINC00158 (11744669_a_at) / RFU DUSP10 (11751237_a_at) / Fold change /veh DUSP10 (11751237_a_at) / RFU ID3 (11757404_x_at) / Fold change /veh ID3 (11757404_x_at) / RFU PLEKHG5 (11737974_s_at) / Fold change /veh PLEKHG5 (11737974_s_at) / RFU LRRC4B (11730491_at) / Fold change /veh LRRC4B (11730491_at) / RFU GIMAP4 (11747438_a_at) / Fold change /veh GIMAP4 (11747438_a_at) / RFU KRT8 (11758183_x_at) / Fold change /veh KRT8 (11758183_x_at) / RFU CNN1 (11734310_a_at) / Fold change /veh CNN1 (11734310_a_at) / RFU VPS37D (11726825_at) / Fold change /veh VPS37D (11726825_at) / RFU C10orf10 (11716522_x_at) / Fold change /veh C10orf10 (11716522_x_at) / RFU KIR2DL2 /// KIR2DL4 /// KIR2DL5A /// KIR2DL5B /// KIR2DS1 /// KIR2DS2 /// KIR2DS3 /// KIR2DS4 /// KIR3DL3 /// KIR3DL3 /// KIR3DS1 (11738374_at) / Fold change /veh KIR2DL2 /// KIR2DL4 /// KIR2DL5A /// KIR2DL5B /// KIR2DS1 /// KIR2DS2 /// KIR2DS3 /// KIR2DS4 /// KIR3DL3 /// KIR3DL3 /// KIR3DS1 (11738374_at) / RFU C1QL1 (11718748_at) / Fold change /veh C1QL1 (11718748_at) / RFU TMPRSS4 (11747572_a_at) / Fold change /veh TMPRSS4 (11747572_a_at) / RFU HAMP (11756126_x_at) / Fold change /veh HAMP (11756126_x_at) / RFU RNFT2 (11725882_a_at) / Fold change /veh RNFT2 (11725882_a_at) / RFU NR4A2 (11747474_a_at) / Fold change /veh NR4A2 (11747474_a_at) / RFU ABCC12 (11746883_a_at) / Fold change /veh ABCC12 (11746883_a_at) / RFU TMEM136 (11760407_x_at) / Fold change /veh TMEM136 (11760407_x_at) / RFU CLDN22 /// WWC2 (11732394_at) / Fold change /veh CLDN22 /// WWC2 (11732394_at) / RFU HLA-DPB1 (11760878_x_at) / Fold change /veh HLA-DPB1 (11760878_x_at) / RFU SPINT1 (11716480_a_at) / Fold change /veh SPINT1 (11716480_a_at) / RFU GAP43 (11754022_s_at) / Fold change /veh GAP43 (11754022_s_at) / RFU A4GNT (11735810_at) / Fold change /veh A4GNT (11735810_at) / RFU PRB3 (11715151_x_at) / Fold change /veh PRB3 (11715151_x_at) / RFU TUBB4B (11761932_at) / Fold change /veh TUBB4B (11761932_at) / RFU CAPN14 (11732068_a_at) / Fold change /veh CAPN14 (11732068_a_at) / RFU TMCC2 (11721928_a_at) / Fold change /veh TMCC2 (11721928_a_at) / RFU IRGQ (11745062_a_at) / Fold change /veh IRGQ (11745062_a_at) / RFU FAM174B (11720279_a_at) / Fold change /veh FAM174B (11720279_a_at) / RFU TMPRSS4 (11748680_a_at) / Fold change /veh TMPRSS4 (11748680_a_at) / RFU FAM212B (11763350_a_at) / Fold change /veh FAM212B (11763350_a_at) / RFU PLEKHG5 (11743358_a_at) / Fold change /veh PLEKHG5 (11743358_a_at) / RFU ZSCAN30 (11745921_a_at) / Fold change /veh ZSCAN30 (11745921_a_at) / RFU CMKLR1 (11741424_a_at) / Fold change /veh CMKLR1 (11741424_a_at) / RFU LOC101060620 /// MAPK8IP1 (11723275_at) / Fold change /veh LOC101060620 /// MAPK8IP1 (11723275_at) / RFU SPTSSB (11747773_x_at) / Fold change /veh SPTSSB (11747773_x_at) / RFU PRSS12 (11739890_at) / Fold change /veh PRSS12 (11739890_at) / RFU BIN1 (11741810_x_at) / Fold change /veh BIN1 (11741810_x_at) / RFU WNT11 (11732464_a_at) / Fold change /veh WNT11 (11732464_a_at) / RFU C10orf10 (11716521_a_at) / Fold change /veh C10orf10 (11716521_a_at) / RFU C5orf56 (11738089_at) / Fold change /veh C5orf56 (11738089_at) / RFU CYB561 (11721691_x_at) / Fold change /veh CYB561 (11721691_x_at) / RFU ANKRD19P (11752326_a_at) / Fold change /veh ANKRD19P (11752326_a_at) / RFU OR2T12 /// OR2T33 /// OR2T8 (11738714_s_at) / Fold change /veh OR2T12 /// OR2T33 /// OR2T8 (11738714_s_at) / RFU VCAN (11748164_a_at) / Fold change /veh VCAN (11748164_a_at) / RFU JSRP1 (11732532_at) / Fold change /veh JSRP1 (11732532_at) / RFU KRTAP10-11 (11738290_x_at) / Fold change /veh KRTAP10-11 (11738290_x_at) / RFU MYO3A (11730013_a_at) / Fold change /veh MYO3A (11730013_a_at) / RFU EBF3 (11725865_a_at) / Fold change /veh EBF3 (11725865_a_at) / RFU CAMK2N1 (11719241_x_at) / Fold change /veh CAMK2N1 (11719241_x_at) / RFU C5orf56 (11738088_a_at) / Fold change /veh C5orf56 (11738088_a_at) / RFU OLFML3 (11715873_a_at) / Fold change /veh OLFML3 (11715873_a_at) / RFU LOC100653217 /// NTM (11731650_a_at) / Fold change /veh LOC100653217 /// NTM (11731650_a_at) / RFU MAPK11 (11762145_a_at) / Fold change /veh MAPK11 (11762145_a_at) / RFU FIZ1 (11724087_x_at) / Fold change /veh FIZ1 (11724087_x_at) / RFU OASL (11726364_x_at) / Fold change /veh OASL (11726364_x_at) / RFU SOX15 (11748057_x_at) / Fold change /veh SOX15 (11748057_x_at) / RFU CD79A (11719716_a_at) / Fold change /veh CD79A (11719716_a_at) / RFU HIST1H1D (11736915_at) / Fold change /veh HIST1H1D (11736915_at) / RFU CASKIN2 (11723855_a_at) / Fold change /veh CASKIN2 (11723855_a_at) / RFU LOC730098 (11760151_x_at) / Fold change /veh LOC730098 (11760151_x_at) / RFU OR4N2 (11742367_at) / Fold change /veh OR4N2 (11742367_at) / RFU PRRT2 (11749266_a_at) / Fold change /veh PRRT2 (11749266_a_at) / RFU SNX32 (11753110_a_at) / Fold change /veh SNX32 (11753110_a_at) / RFU CDHR5 (11726645_a_at) / Fold change /veh CDHR5 (11726645_a_at) / RFU RCAN1 (11760418_a_at) / Fold change /veh RCAN1 (11760418_a_at) / RFU FAM167A (11723789_a_at) / Fold change /veh FAM167A (11723789_a_at) / RFU FAM26E (11764081_at) / Fold change /veh FAM26E (11764081_at) / RFU ISYNA1 (11749810_s_at) / Fold change /veh ISYNA1 (11749810_s_at) / RFU ACY1 (11761880_at) / Fold change /veh ACY1 (11761880_at) / RFU 11764098_at / Fold change /veh 11764098_at / RFU SAMD14 (11745864_x_at) / Fold change /veh SAMD14 (11745864_x_at) / RFU NPB (11741838_a_at) / Fold change /veh NPB (11741838_a_at) / RFU TMPRSS6 (11731388_a_at) / Fold change /veh TMPRSS6 (11731388_a_at) / RFU KRTAP10-2 (11738614_at) / Fold change /veh KRTAP10-2 (11738614_at) / RFU ARHGAP8 /// PRR5-ARHGAP8 (11727945_x_at) / Fold change /veh ARHGAP8 /// PRR5-ARHGAP8 (11727945_x_at) / RFU KRTAP5-7 /// NADSYN1 (11734609_at) / Fold change /veh KRTAP5-7 /// NADSYN1 (11734609_at) / RFU RASL12 (11751679_a_at) / Fold change /veh RASL12 (11751679_a_at) / RFU CDKN2B (11736163_a_at) / Fold change /veh CDKN2B (11736163_a_at) / RFU PRF1 (11729649_at) / Fold change /veh PRF1 (11729649_at) / RFU, ZNF638 /// ZNF638-IT1 / Fold change vs veh, ZNF638 /// ZNF638-IT1 / RFU, PANK3 / Fold change vs veh, PANK3 / RFU, SH3YL1 / Fold change vs veh, SH3YL1 / RFU, ZEB2 / Fold change vs veh, ZEB2 / RFU, NRIP1 / Fold change vs veh, NRIP1 / RFU, PTTG1IP / Fold change vs veh, PTTG1IP / RFU, CAPN2 / Fold change vs veh, CAPN2 / RFU, MED14 / Fold change vs veh, MED14 / RFU, SNORA58 / Fold change vs veh, SNORA58 / RFU, C1orf63 / Fold change vs veh, C1orf63 / RFU, LRRFIP1 / Fold change vs veh, LRRFIP1 / RFU, NDUFAF7 / Fold change vs veh, NDUFAF7 / RFU, SLC12A2 / Fold change vs veh, SLC12A2 / RFU, IBTK / Fold change vs veh, IBTK / RFU, ESF1 / Fold change vs veh, ESF1 / Fold change vs veh, TMEM50B / RFU, TAOK1 / Fold change vs veh, TAOK1 / RFU, ACBD3 / Fold change vs veh, ACBD3 / RFU, TMA16 / Fold change vs veh, TMA16 / RFU, RWDD3 / Fold change vs veh, RWDD3 / RFU, BCAT1 / Fold change vs veh, BCAT1 / RFU, EDEM3 / Fold change vs veh, EDEM3 / RFU, TMEM33 / Fold change vs veh, TMEM33 / RFU, WDR75 / Fold change vs veh, WDR75 / RFU, AHCTF1 / Fold change vs veh, AHCTF1 / RFU, TFRC / Fold change vs veh, TFRC / RFU, ZDHHC17 / Fold change vs veh, ZDHHC17 / RFU, NOM1 / Fold change vs veh, NOM1 / RFU, ARL8B / Fold change vs veh, ARL8B / RFU, ZBTB11 / Fold change vs veh, ZBTB11 / RFU, TAMM41 / Fold change vs veh, TAMM41 / RFU, KIAA1704 /// LOC100996395 / Fold change vs veh, KIAA1704 /// LOC100996395 / RFU, ING1 / Fold change vs veh, ING1 / RFU, TRMT61B / Fold change vs veh, TRMT61B / RFU, FUBP3 / Fold change vs veh, FUBP3 / RFU, TP53 / Fold change vs veh, TP53 / RFU, TNKS2 / Fold change vs veh, TNKS2 / RFU, ZFP14 / Fold change vs veh, ZFP14 / RFU, ACTR2 / Fold change vs veh, ACTR2 / RFU, PPP3R1 / Fold change vs veh, PPP3R1 / RFU, PIK3R1 / Fold change vs veh, PIK3R1 / RFU, HNRNPA1 / Fold change vs veh, HNRNPA1 / RFU, RNF170 / Fold change vs veh, RNF170 / RFU, ZNF28 / Fold change vs veh, ZNF28 / RFU, RNGTT / Fold change vs veh, RNGTT / RFU, OGT / Fold change vs veh, OGT / RFU, BRD1 / Fold change vs veh, BRD1 / RFU, MARS / Fold change vs veh, MARS / RFU, ZNF655 / Fold change vs veh, ZNF655 / RFU, FAHD1 / Fold change vs veh, FAHD1 / RFU, BDP1 / Fold change vs veh, BDP1 / RFU, LRRCC1 / Fold change vs veh, LRRCC1 / RFU, ARID1A / Fold change vs veh, ARID1A / RFU, ZNF146 / Fold change vs veh, ZNF146 / RFU, ZNF330 / Fold change vs veh, ZNF330 / RFU, GPN3 / Fold change vs veh, GPN3 / RFU, C9orf123 / Fold change vs veh, C9orf123 / RFU, N4BP2L2 / Fold change vs veh, N4BP2L2 / RFU, ARFIP1 / Fold change vs veh, ARFIP1 / RFU, FAM179B / Fold change vs veh, FAM179B / RFU, BCL10 / Fold change vs veh, BCL10 / RFU, UHRF1BP1L / Fold change vs veh, UHRF1BP1L / RFU, BET1 / Fold change vs veh, BET1 / RFU, CNOT2 / Fold change vs veh, CNOT2 / RFU, ZNF268 / Fold change vs veh, ZNF268 / Fold change vs veh, ZNF507 / RFU, DGCR2 / Fold change vs veh, DGCR2 / RFU, WDSUB1 / Fold change vs veh, WDSUB1 / Fold change vs veh, HSP90B1 /// MIR3652 / RFU, ADSS / Fold change vs veh, ADSS / RFU, GK / Fold change vs veh, GK / RFU, ZNF148 / Fold change vs veh, ZNF148 / RFU, TAF9 / Fold change vs veh, TAF9 / RFU, SLC1A5 / Fold change vs veh, SLC1A5 / RFU, SLMO2 / Fold change vs veh, SLMO2 / RFU, ABCC4 / Fold change vs veh, ABCC4 / RFU, LOC101060439 /// RAP1B / Fold change vs veh, LOC101060439 /// RAP1B / RFU, RFX7 / Fold change vs veh, RFX7 / RFU, GTPBP10 / Fold change vs veh, GTPBP10 / RFU, CNEP1R1 / Fold change vs veh, CNEP1R1 / RFU, BIVM-ERCC5 /// ERCC5 / Fold change vs veh, BIVM-ERCC5 /// ERCC5 / RFU, ILF3 / Fold change vs veh, ILF3 / RFU 11762660_at / Fold change /veh 11762660_at / RFU VCAN (11757783_s_at) / Fold change /veh VCAN (11757783_s_at) / RFU DDX43 (11728927_at) / Fold change /veh DDX43 (11728927_at) / RFU KRT8 (11758188_x_at) / Fold change /veh KRT8 (11758188_x_at) / RFU NKD1 (11759106_at) / Fold change /veh NKD1 (11759106_at) / RFU SRD5A1 (11742802_a_at) / Fold change /veh SRD5A1 (11742802_a_at) / RFU TPSAB1 /// TPSB2 (11721975_s_at) / Fold change /veh TPSAB1 /// TPSB2 (11721975_s_at) / RFU GSTM3 (11746129_a_at) / Fold change /veh GSTM3 (11746129_a_at) / RFU IL23R (11737362_x_at) / Fold change /veh IL23R (11737362_x_at) / RFU TMEM51 (11727254_a_at) / Fold change /veh TMEM51 (11727254_a_at) / RFU PIWIL2 (11732686_x_at) / Fold change /veh PIWIL2 (11732686_x_at) / RFU ORM1 (11744905_x_at) / Fold change /veh ORM1 (11744905_x_at) / RFU CCDC152 (11743942_at) / Fold change /veh CCDC152 (11743942_at) / RFU ECM1 (11717891_a_at) / Fold change /veh ECM1 (11717891_a_at) / RFU IL23R (11748794_a_at) / Fold change /veh IL23R (11748794_a_at) / RFU TNFAIP8L3 (11732012_x_at) / Fold change /veh TNFAIP8L3 (11732012_x_at) / RFU MBOAT4 (11741988_at) / Fold change /veh MBOAT4 (11741988_at) / RFU 11764193_at / Fold change /veh 11764193_at / RFU TMEM53 (11763286_at) / Fold change /veh TMEM53 (11763286_at) / RFU MAGEB2 (11727129_at) / Fold change /veh MAGEB2 (11727129_at) / RFU TMEM200A (11744735_a_at) / Fold change /veh TMEM200A (11744735_a_at) / RFU CCDC152 (11751479_a_at) / Fold change /veh CCDC152 (11751479_a_at) / RFU FAM211A (11726209_a_at) / Fold change /veh FAM211A (11726209_a_at) / RFU RGS16 (11746705_a_at) / Fold change /veh RGS16 (11746705_a_at) / RFU VCAN (11755009_s_at) / Fold change /veh VCAN (11755009_s_at) / RFU RHOB (11743442_s_at) / Fold change /veh RHOB (11743442_s_at) / RFU RGS16 (11720943_a_at) / Fold change /veh RGS16 (11720943_a_at) / RFU RGS16 (11720944_at) / Fold change /veh RGS16 (11720944_at) / RFU, VPS4B / Fold change vs veh, VPS4B / RFU, CREB1 / Fold change vs veh, CREB1 / RFU, DNAJC13 / Fold change vs veh, DNAJC13 / RFU, GNAQ / Fold change vs veh, GNAQ / RFU, CDK5R1 / Fold change vs veh, CDK5R1 / RFU, ZRANB3 / Fold change vs veh, ZRANB3 / RFU, CUL4A / Fold change vs veh, CUL4A / RFU, CCNY / Fold change vs veh, CCNY / RFU, UFL1 / Fold change vs veh, UFL1 / RFU, COG3 / Fold change vs veh, COG3 / RFU, DIAPH2 / Fold change vs veh, DIAPH2 / RFU, SKA2 / Fold change vs veh, SKA2 / RFU, AFF3 / Fold change vs veh, AFF3 / RFU, LMF1 / Fold change vs veh, LMF1 / RFU, IPO11 / Fold change vs veh, IPO11 / RFU, DFFB / Fold change vs veh, DFFB / RFU, FOXP1 / Fold change vs veh, FOXP1 / RFU, CARD8 / Fold change vs veh, CARD8 / RFU, STRN3 / Fold change vs veh, STRN3 / RFU, ADK / Fold change vs veh, ADK / RFU, RASSF2 / Fold change vs veh, RASSF2 / RFU, WIPF1 / Fold change vs veh, WIPF1 / RFU, LARP1B / Fold change vs veh, LARP1B / RFU, RASA1 / Fold change vs veh, RASA1 / RFU, RB1 / Fold change vs veh, RB1 / RFU, PPFIA1 / Fold change vs veh, PPFIA1 / RFU, MAT2A / Fold change vs veh, MAT2A / RFU, CCT5 / Fold change vs veh, CCT5 / RFU, WDR92 / Fold change vs veh, WDR92 / RFU, CUX1 / Fold change vs veh, CUX1 / RFU, TTC7A / Fold change vs veh, TTC7A / RFU, TMEM135 / Fold change vs veh, TMEM135 / RFU, DEPTOR / Fold change vs veh, DEPTOR / RFU, CPM / Fold change vs veh, CPM / RFU, DNAJB6 / Fold change vs veh, DNAJB6 / RFU, CACNA2D3 / Fold change vs veh, CACNA2D3 / RFU, DTX4 / Fold change vs veh, DTX4 / RFU, TFCP2 / Fold change vs veh, TFCP2 / RFU, GMCL1 /// GMCL1P1 / Fold change vs veh, GMCL1 /// GMCL1P1 / RFU, AEBP2 / Fold change vs veh, AEBP2 / RFU, SNHG1 /// SNORD22 /// SNORD25 /// SNORD26 /// SNORD27 /// SNORD28 /// SNORD29 /// SNORD31 / Fold change vs veh, SNHG1 /// SNORD22 /// SNORD25 /// SNORD26 /// SNORD27 /// SNORD28 /// SNORD29 /// SNORD31 / Fold change (Aza/veh), C12orf56 (ProbeSet 11735607_a_at) / Fold change (ACY-1035/veh), C12orf56 (ProbeSet 11735607_a_at) / Fold change (Aza/veh), FGFR1OP (ProbeSet 11751329_s_at) / Fold change (ACY-1035/veh), FGFR1OP (ProbeSet 11751329_s_at) / Fold change (Aza/veh), VPS36 (ProbeSet 11739960_a_at) / Fold change (ACY-1035/veh), VPS36 (ProbeSet 11739960_a_at) / RFU SYPL1 (11715823_x_at) / Fold change /veh SYPL1 (11715823_x_at) / RFU IGFBP7 (11715501_s_at) / Fold change /veh IGFBP7 (11715501_s_at) / RFU REEP3 (11722064_at) / Fold change /veh REEP3 (11722064_at) / RFU IGLL1 (11728026_x_at) / Fold change /veh IGLL1 (11728026_x_at): dose or concentration left out as unconfirmed
Details: MV-4-11 cells, 48 hours

Q: With `Nc1ncn([C@@H]2O[C@H](CO)[C@@H](O)[C@H]2O)c(=O)n1` [azacitidine] as the molecule, how does the “Fold change /veh KRT8 (11758188_x_at)” value read?
A: 1.26
